One data set deals with E. coli. As to the kind of experiment: Antimicrobial susceptibility testing (AST) with MST read-out of 16S rRNA. On the set-up: dose or concentration left out as unconfirmed. Conditions: 5*10^5 bacteria; 90-150 minutes.
The test system of a further data set is S-gene RNA (SARS-CoV2). It is filed as binding.
In another data set the test system is human total RNA. Put plainly: MST of 16S probe / Dox with human total RNA (specificity). The class given is binding. As to conditions: 100 μM Dox with 16S1^Cy5; blue mode. As for the experimental part:
In order to assess the effect of human RNA presence and Dox post-hybridization on signal response, 16S1^Cy5 was incubated with increasing concentrations of bacterial or human total RNA at 71° C. for 2 hours. Equal amounts were then taken for post-hybridization incubation with Dox or hybridization buffer as a control.
In order to compare signal sensitivity in the presence and absence of Dox, ΔFnorm[‰] values of human RNA were subtracted (ΔΔFnorm), and the ratios of ΔΔFnorm[‰] were compared.

Data set [1] in a line: MST of Dox alone in hybridization solution. It is filed as physicochemical. As to conditions: 3.125-100 μM Dox; no RNA, no probes; blue mode. As for the experimental part:
In order to investigate the possibility that Dox monomers interact with each other, thereby causing Dox to migrate into the heating zone particularly at high Dox concentrations, Dox was incubated in hybridization solution without the presence of either S-gene RNA or the DNA probes.

For another data set, the system named is 16S rRNA (E. coli). Put plainly: MST of Cy5 probes hybridized with total bacterial RNA. The class given is binding. As for the experimental part: For bacterial RNA extraction, DH5α E. coli cells transfected with pcDNA3.1+ plasmid were grown overnight in LB medium containing 100 μg/ml ampicillin. The concentration of bacterial cells was determined according to OD at 600 nm, and ˜7·10^8 cells were taken for RNA extraction. 1 volume of bacterial culture was mixed with 2 volumes of RNAprotect® Bacteria Reagent (QIAGEN), vortexed for 5 seconds and incubated for 5 minutes at room temperature. The sample was then centrifuged for 10 minutes at 5,000×g at room temperature. After discarding supernatant, the pellet was resuspended in 100 μl TE buffer (10 mM Tris-HCl, 1 mM EDTA, pH 8) containing 1 mg/ml lysozyme. The samples were vortexed for 5 seconds, and then incubated at room temperature for 10 minutes with vortexing every 2 minutes. 1 ml TRIzol™ reagent was added to the sample. The sample was incubated at room temperature for 5 minutes, and then RNA extraction was performed as described hereinabove.
RNA was extracted from a sample, and after extraction, the RNA pellet was solubilized and hybridized with a specific fluorescently labeled DNA probe in a hybridization solution (as schematically depicted in FIG. 1). After hybridization, the hybridized sample was loaded into an MST capillary and inserted into a Monolith™ MST instrument (NanoTemper Technologies GmbH, Germany). This instrument included a blue mode (493 nm excitation, […]) and red mode ([…], 670 nm emission) for detection, and an I.R laser (1475 nm+/−15 nm) for heating. The intensities for both fluorescence detection (LED) and IR laser are adjustable, in a range of 0%-100%, wherein the temperature gradient generated has a temperature difference of up to about 2-8° C. Thermophoretic force was induced by infrared laser after 1 second, and maintained for 2 seconds, for a total of a 3 second measurement window (measurement time may optionally be further reduced to 2 seconds using current available MST instruments).
For RNA titration measurements, the extracted RNA solution was diluted to X2 and a serial dilution was prepared in water. Hybridization solutions were prepared as described herein, were X1 solution consisted of SSC buffer X1, 0.05% TWEEN™ 20 surfactant, and 1% formamide unless indicated otherwise. Fluorescently labeled probes were diluted from a 100 μM stock to 1:2400 in hybridization solution X2, denatured for 5 minutes at 100° C. and then incubated on ice for 5 minutes. If a mixture of uniformly labeled probes was prepared, the probes were diluted to a 1:1200 dilution in water and then diluted to 1:2400 with hybridization solution X4 (1:1/number of probes) to create equal molarity of the fluorescent dye. The probe solution was combined with the titration series in a 1:1 (v/v) ratio (10 μL total volume) and allowed to hybridize at a defined temperature for a given time as described. If post-hybridization with intercalating agents (ICA), doxorubicin or Midori™ Green, was performed, the samples were combined with ICA X5 solution 4:1 (v:v) ratio, 8 μL and 2 μL respectively. For cell based measurements, after extraction, the RNA pellet was solubilized and hybridized with a specific fluorescently labeled DNA probe in a hybridization solution (as schematically depicted in FIG. 1).
In order to determine the optimal hybridization temperature, one of the designed probes (16S1^Cy5) was incubated with increasing concentrations of bacterial RNA at different temperatures for 10 minutes. MST measurements were then performed using the red wavelength acquisition mode.
In order to assess the effect of human RNA presence and Dox post-hybridization on signal response, 16S1^Cy5 was incubated with increasing concentrations of bacterial or human total RNA at 71° C. for 2 hours. Equal amounts were then taken for post-hybridization incubation with Dox or hybridization buffer as a control. […]

“Also recorded” adds a separate entry of the source.

As to `CC1(C)S[C@@H]2[C@H](NC(=O)[C@H](N)c3ccccc3)C(=O)N2[C@H]1C(=O)O` [Ampicillin], the “growth of E. coli bacteria in the presence of antibiotic” value in the data set with E. coli is reported as “no growth was observed”.

In the case of `COc1cccc2c1C(=O)c1c(O)c3c(c(O)c1C2=O)C[C@@](O)(C(=O)CO)C[C@@H]3O[C@H]1C[C@H](N)[C@H](O)[C@H](C)O1` [Dox, doxorubicin, reference compound], the “effect of Dox on slope of S^Cy5 linear regression (analytical sensitivity)” value in the data set with S-gene RNA (SARS-CoV2) (100 μM Dox vs 0, 1 or 10 μM Dox) is given as “steeper slope”. In the data set on S-gene RNA (SARS-CoV2) (100 μM Dox, no S^Cy5 probe, blue mode), the “effect of S-gene RNA concentration on Dox signal without DNA probe” value is “did not noticeably affect the change in signal”. The “Dox fluorescence dependence on S-gene RNA concentration” value in the data set with S-gene RNA (SARS-CoV2) (1, 10 or 100 μM Dox, S^Cy5 present, blue mode) is “dependent on S-gene RNA concentration”. Also, the “effect of Dox on initial fluorescence intensity of S^Cy5” value in the data set with S-gene RNA (SARS-CoV2) (1, 10 or 100 μM Dox, dose-dependent, prior to temperature gradient) is “decreased the initial fluorescence intensity values”. The “Dox signal dependence on RNA concentration” value in the data set on human total RNA was “dependent on the concentrations of both human RNA and bacterial RNA”; with 16S rRNA (E. coli) (100 μM Dox with 16S1^Cy5, blue mode) it was “dependent on the concentrations of both human RNA and bacterial RNA”. The “degree of Dox migration into the heating zone” value in data set [1] was “correlated to Dox concentration”. Besides, in the data set with 16S rRNA (E. coli) (100 μM Dox post-hybridization), the “effect of Dox on signal sensitivity of 16S probes” value is “increased signal sensitivity; also recorded: enhanced signal sensitivity to a considerable extent”.

The values above are taken from patent US20250340939A1 (priority 2021, published 2025).
